In patent US6649398B2, “Method for inducing bacterial growth using autoinducers” (University of Leicester, priority 1997, dated 2003):

What was measured:
Acinetobacter lwoffii = assay: Growth response in serum-SAPI medium (CFU/ml); format: cell-based; conditions: control 1.0 × 10^4
Description: (§1) Bacteria (approximately 50-500 cfu/ml) are inoculated into SAPI minimal medium (6.25 mM NH4NO3, 1.84 mM KH2PO4, 3.35 mM KCl, 1.01 mM MgSO4 and 2.77 mM glucose, pH 7.5) supplemented with 30% (v/v) adult bovine serum (Sigma), and either 1% (v/v) previously made E.coli autoinducer or 50 mM norepinephrine.
(§2) The cultures are grown statically (i.e. without aeration by shaking) for 24 hours at 37° C. in a 5% CO2 incubator.
(§3) It has been shown that certain of these bacteria respond to norepinephrine (NE) and synthesise their own autoinducers, all of which are heat-stable low molecular weight molecules (less than 1000 Da) similar in size to the E. coli autoinducer (Table 4, FIG. 5).

Citrobacter freundii = assay: Growth response in serum-SAPI medium (CFU/ml); format: cell-based; conditions: control 1.9 × 10^6
Description: as §1, §2, §3

Enterobacter aerogenes = assay: Growth response in serum-SAPI medium (CFU/ml); format: cell-based; conditions: control 3.2 × 10^8
Description: as §1, §2, §3

Enterobacter agglomerans = assay: Growth response in serum-SAPI medium (CFU/ml); format: cell-based; conditions: control 2.9 × 10^4
Description: as §1, §2, §3

Enterobacter cloacae = assay: Growth response in serum-SAPI medium (CFU/ml); format: cell-based; conditions: control 7.2 × 10^6
Description: as §1, §2, §3

Enterobacter sakazaki = assay: Growth response in serum-SAPI medium (CFU/ml); format: cell-based; conditions: control 3.0 × 10^6
Description: as §1, §2, §3

Enterococcus faecalis = assay: Growth response in serum-SAPI medium (CFU/ml); format: cell-based; conditions: control 5.0 × 10^5
Description: as §1, §2, §3

Enterococcus faecium = assay: Growth response in serum-SAPI medium (CFU/ml); format: cell-based; conditions: control 2.1 × 10^5
Description: as §1, §2, §3

Escherichia coli = assay: Growth response in serum-SAPI medium (CFU/ml); format: cell-based; conditions: control 7.5 × 10^4
Description: as §1, §2, §3

Hafnia alvei = assay: Growth response in serum-SAPI medium (CFU/ml); format: cell-based; conditions: control 1.2 × 10^4
Description: as §1, §2, §3

Klebsiella oxytoca = assay: Growth response in serum-SAPI medium (CFU/ml); format: cell-based; conditions: control 4.2 × 10^4
Description: as §1, §2, §3

Klebsiella pneumoniae = assay: Growth response in serum-SAPI medium (CFU/ml); format: cell-based; conditions: control 3.1 × 10^4
Description: as §1, §2, §3

Listeria monocytogenes = assay: Growth response in serum-SAPI medium (CFU/ml); format: cell-based; conditions: control 2.5 × 10^5
Description: as §1, §2, §3

Morganella morganii = assay: Growth response in serum-SAPI medium (CFU/ml); format: cell-based; conditions: control 3.7 × 10^4
Description: as §1, §2, §3

Proteus mirabilis = assay: Growth response in serum-SAPI medium (CFU/ml); format: cell-based; conditions: control 1.1 × 10^3
Description: as §1, §2, §3

Pseudomonas aeruginosa = assay: Growth response in serum-SAPI medium (CFU/ml); format: cell-based; conditions: control 3.7 × 10^4
Description: as §1, §2, §3

[1] = tested on: Salmonella enterica sv Enteriditis; assay: Growth response in serum-SAPI medium (CFU/ml); format: cell-based; conditions: control 7.5 × 10^5
Description: as §1, §2, §3

Serratia marcescens = assay: Growth response in serum-SAPI medium (CFU/ml); format: cell-based; conditions: control 8.5 × 10^7
Description: as §1, §2, §3

Staphylococcus albus = assay: Growth response in serum-SAPI medium (CFU/ml); format: cell-based; conditions: control 1.1 × 10^3
Description: as §1, §2, §3

Staphylococcus aureus = assay: Growth response in serum-SAPI medium (CFU/ml); format: cell-based; conditions: control 3.2 × 10^5
Description: as §1, §2, §3

[2] = tested on: Streptococcus dysgalactiae; assay: Growth response in serum-SAPI medium (CFU/ml); format: cell-based; conditions: control 2.0 × 10^7
Description: as §1, §2, §3

Streptococcus sanguis = assay: Growth response in serum-SAPI medium (CFU/ml); format: cell-based; conditions: control 2.1 × 10^4
Description: as §1, §2, §3

Xanthomonas maltophilia = assay: Growth response in serum-SAPI medium (CFU/ml); format: cell-based; conditions: control 1.7 × 10^5
Description: as §1, §2, §3

Yersinia entercolitica = assay: Growth response in serum-SAPI medium (CFU/ml); format: cell-based; conditions: control 4.2 × 10^4
Description: as §1, §2, §3

bacteria = assay: Growth stimulation assay (serum assay); format: cell-based; conditions: for Stimulation of growth and autoinducer production in serum assay: equivalent mM concentrations
[3] = cited from earlier work

SMILES: NC[C@H](O)c1ccc(O)c(O)c1 [NE, norepinephrine]
- Response (growth), CFU/ml (Acinetobacter lwoffii): 2.9 × 10^7 CFU/ml
- Response (growth), CFU/ml (Citrobacter freundii): 3.5 × 10^7 CFU/ml
- Response (growth), CFU/ml (Enterobacter aerogenes): 5.5 × 10^8 CFU/ml
- Response (growth), CFU/ml (Enterobacter agglomerans): 6.1 × 10^6 CFU/ml
- Response (growth), CFU/ml (Enterobacter cloacae): 1.1 × 10^8 CFU/ml
- Response (growth), CFU/ml (Enterobacter sakazaki): 4.1 × 10^7 CFU/ml
- Response (growth), CFU/ml (Enterococcus faecalis): 5.5 × 10^6 CFU/ml
- Response (growth), CFU/ml (Enterococcus faecium): 5.6 × 10^6 CFU/ml
- Response (growth), CFU/ml (Escherichia coli): 5.9 × 10^8 CFU/ml
- Response (growth), CFU/ml (Hafnia alvei): 3.7 × 10^8 CFU/ml
- Response (growth), CFU/ml (Klebsiella oxytoca): 1.6 × 10^8 CFU/ml
- Response (growth), CFU/ml (Klebsiella pneumoniae): 6.7 × 10^7 CFU/ml
- Response (growth), CFU/ml (Listeria monocytogenes): 3.5 × 10^6 CFU/ml
- Response (growth), CFU/ml (Morganella morganii): 1.6 × 10^7 CFU/ml
- Response (growth), CFU/ml (Proteus mirabilis): 1.0 × 10^7 CFU/ml
- Response (growth), CFU/ml (Pseudomonas aeruginosa): 2.1 × 10^7 CFU/ml
- Response (growth), CFU/ml [1]: 1.0 × 10^8 CFU/ml
- Response (growth), CFU/ml (Serratia marcescens): 3.4 × 10^8 CFU/ml
- Response (growth), CFU/ml (Staphylococcus albus): 1.5 × 10^7 CFU/ml
- Response (growth), CFU/ml (Staphylococcus aureus): 5.7 × 10^5 CFU/ml
- Response (growth), CFU/ml [2]: 2.4 × 10^6 CFU/ml
- Response (growth), CFU/ml (Streptococcus sanguis): 1.1 × 10^4 CFU/ml
- Response (growth), CFU/ml (Xanthomonas maltophilia): 2.1 × 10^6 CFU/ml
- Response (growth), CFU/ml (Yersinia entercolitica): 1.7 × 10^8 CFU/ml

SMILES: CCN(CC)CC.O=C(O)O [TEAB, triethylammonium bicarbonate]
- Inhibition in the growth stimulation assays (bacteria; concentrations up to 20 mM): not inhibitory

SMILES: CC(=O)O [acetate]
- Stimulation of growth and autoinducer production in serum assay (bacteria): not

SMILES: Cl.N [ammonium chloride]
- Stimulation of growth and autoinducer production in serum assay (bacteria): not

SMILES: N.N.O=S(=O)(O)O [ammonium sulfate]
- Stimulation of growth and autoinducer production in serum assay (bacteria): can stimulate growth and autoinducer production

SMILES: O=C(O)O [bicarbonate]
- Stimulation of growth and autoinducer production in serum assay (bacteria): not

SMILES: O=C(N[C@H]1COC(=O)[C@@H](NC(=O)c2cccc(O)c2O)COC(=O)[C@@H](NC(=O)c2cccc(O)c2O)COC1=O)c1cccc(O)c1O [enterochelin]
- Solubility in organic solvents [3]: soluble in organic solvents

SMILES: O=CO [formate]
- Stimulation of growth and autoinducer production in serum assay (bacteria): not
